Values of other authors as cited in patent US8366600B2, “Polyamine enhanced formulations for triptan compound iontophoresis” (NuPathe Inc., priority 2008, dated 2013).

How the values were obtained:
[1] = for Cmax: expected maximum concentration in the patient's plasma; for AUC: total plasma concentration
[2] = transdermal, iontophoresis vs passive

| Cmax [1] [ng/mL] | AUC [1] | rate of iontophoretic transport relative to passive transport [2] [fold] | SMILES |
| --- | --- | --- | --- |
| 52 | 310 ng·h/mL | – | CN(C)CCc1c[nH]c2ccc(CS(=O)(=O)N3CCCC3)cc12 [Almotriptan] |
| 200 | 1,300 ng · hr/mL | – | CN1CCC[C@@H]1Cc1c[nH]c2ccc(CCS(=O)(=O)c3ccccc3)cc12 [Eletriptan] |
| 5 | 45 ng·h/mL | – | CN[C@@H]1CCc2[nH]c3ccc(C(N)=O)cc3c2C1 [Frovatriptan] |
| 8 | 75 ng·h/mL | – | CNS(=O)(=O)CCc1ccc2[nH]cc(C3CCN(C)CC3)c2c1 [Naratriptan] |
| 22 | 78 ng·h/mL | – | CN(C)CCc1c[nH]c2ccc(Cn3cncn3)cc12 [Rizatriptan] |
| – | – | 385 | CNS(=O)(=O)Cc1ccc2[nH]cc(CCN(C)C)c2c1 [Sumatriptan] |
| 4 | 20 ng·h/mL | – | CN(C)CCc1c[nH]c2ccc(C[C@H]3COC(=O)N3)cc12 [Zolmitriptan] |
